Measured values as given in paper PMC11402852, “Genotoxicity of selected cannabinoids in human lymphoblastoid TK6 cells” (Archives of Toxicology, 2024).
Like-named read-outs stand apart in the source and are kept apart here.

Key:
TK6 cells [1] = assay: Cell cycle analysis (flow cytometry, DAPI); assay type: cell-based, human
Method: The cells were treated with CBG 30 µM, CBD 15 µM, CBC 15 µM, CBDV 40 µM, and CBN 15 µM for 6 or 24 h. The positive control was vincristine sulphate in a concentration of 0.0121 µM for 6 h of exposure and 0.0061 µM for 24 h. The solvent control was DMSO. Furthermore, experiments with the addition of S9 mix were performed with CBDV. In these experiments, cells were treated with CBDV (40 µM) with or without 0.25% S9 mix for 6 h. DMSO with or without the S9 mix was used as control, and the positive control was the same as mentioned above. After the treatment, cells were collected, washed twice with phosphate buffered saline (PBS) and fixed with 70% ethanol for 30 min on ice. Following each described step above, cells were centrifuged at 1000 rpm, 5 min, and 4 °C. Lastly, cells were resuspended in 1% bovine serum albumin (BSA) in PBS solution and stained with DAPI in a final concentration of 1 µg/mL for 30 min on ice. The cell distribution in different cell cycle phases was analyzed with MACSQuant® Analyzer 16 Flow Cytometer using a 450/50 nm filter and MACSQuantify™ Software 2.13 (Miltenyi Biotec, Bergisch Gladbach, Germany). For each sample, 20 000 events were analyzed. Four independent experiments were performed for 6 h of treatment without metabolic activation. Three independent experiments were done for 24 h of treatment without metabolic activation and 6 h of treatment with metabolic activation.

[2] = test system: human lymphoblastoid TK6 cells; assay: Kinetochore analysis of micronuclei; assay type: cell-based; conditions: 4 h; for Kinetochore (+) MNi, %: of 200 micronuclei, CBG 30 µM, CBD 15 µM, CBC 15 µM, CBDV 40 µM, CBN 15 µM, MMS 40 µM, vincristine 0.0121 µM, one experiment
Method: For kinetochore analysis, cells were treated for 4 h with CBG 30 µM, CBD 15 µM, CBC 15 µM, CBDV 40 µM, and CBN 15 µM. The positive controls were MMS 40 µM, and vincristine sulphate 0.0121 µM; the solvent control was DMSO. After 4 h of treatment, the culture medium was renewed, and cells were exposed for 24 h to the cytokinesis inhibitor cytochalasin B (3 μg/mL). Then, cells were harvested, and slides were prepared with cytospin centrifugation. The cells were fixed in ice-cold methanol for 2 h. Kinetochores were stained overnight with undiluted primary anti-centromere antibody at 37 °C followed by 1:20 diluted FITC-conjugated secondary antibody at 37 °C for 2 h. Nuclei were counterstained with Hoechst 33,258 (5 µg/mL, 3 min). The experiment was performed one time. Per compound, 200 micronuclei were evaluated for kinetochore signal presence (Fig. 3). The evaluation was performed with a Keyence BZ-X800 microscope. The slides used in kinetochore evaluation were also evaluated for the number of induced micronuclei as described in the above paragraph cytokinesis‑block micronucleus assay.

[3] = test system: human lymphoblastoid TK6 cells; assay: Cytokinesis-block micronucleus (CBMN) assay; conditions: for BMDL (10th percentile): 10th percentile of BMD50 estimation; for BMDL (10th percentile) / BMDU (90th percentile) / Number of micronuclei with S9 mix vs without: 4 h; for BMDL (10th percentile) / BMDU (90th percentile): micronucleus data; for 4 h BMD50: 50% increased relative genotoxicity vs controls, from micronucleus data, without S9, Bayesian BMD analysis; for 4 h BMD50 / Micronucleus induction: 4 h treatment; for BMDU (90th percentile): 90th percentile of BMD50 estimation; for Number of micronuclei with S9 mix vs without: CBG 30 µM, CBD 15 µM, CBC 15 µM, CBDV 40 µM, CBN 15 µM, 0.25% S9 mix; for Micronucleus induction: without metabolic activation, at least one concentration, vs solvent control
[4] = design: method as in Peters et al. [2022]; conditions: after consuming medical cannabis oil, ref Peters et al. [2022], cited from earlier work
TK6 cells [5] = assay: Tubulin visualization; assay type: cell-based, human; conditions: 6 h; CBG 30 µM, CBD 15 µM, CBC 15 µM, CBN 15 µM; visually compared to control, not quantified
Method: For tubulin visualization, cells were treated with CBG 30 µM, CBD 15 µM, CBC 15 µM, CBDV 40 µM, and CBN 15 µM. The positive control was vincristine sulphate 0.0121 µM, and the solvent control was DMSO. Cells were treated for 6 h and then harvested. Slides were prepared with cytospin centrifugation. The cells were fixed in ice-cold methanol for 2 h. Following fixation, cells were permeabilized with 0.1% Tween20 in 1 × phosphate-buffered saline (PBS) for 5 min. Next, the anti-α-tubulin antibody was applied in 1:50 dilution. Antibody was diluted with 5% FCS in 1 × PBS. The antibody was incubated in a humid chamber at 4 °C for 24 h. Afterwards, the antibody was removed by washing slides twice with 0.5% Tween20 in 1 × PBS for 5 min. Nuclei were counterstained with Hoechst 33,258 (5 µg/mL, 3 min). The visualization was performed with a Keyence BZ-X800 microscope.

[6] = test system: adult neural stem/progenitor cells; design: method as in Lourenço et al. ([2023]); conditions: 7 days of exposure; phase not indicated; ref Lourenço et al. ([2023]); cited from earlier work
[7] = test system: human buccal cell line TR146; design: method as in Russo et al. ([2019]); conditions: TR146, after 3 and 24 h; ref Russo et al. ([2019]); cited from earlier work
[8] = test system: human lymphoblastoid TK6 cells; conditions: for 4 h BMD50 / BMDL (10th percentile) / BMDU (90th percentile): human, 4 h
[9] = design: method as in Hurley et al. ([2022]); conditions: epilepsy treatment in children, ref Hurley et al. ([2022]), cited from earlier work
[10] = frequent Cannabis smokers, inhalation, ref Newmeyer et al. [2016], cited from earlier work; for Cmax: read-out: Mean maximum concentration (Cmax) in blood
[11] = test system: human mesothelioma, cholangiocellular carcinoma and ovarian carcinoma cell lines; design: method as in earlier work; conditions: 24 h of treatment; correlates with decrease of cell percentage in S phase; ref Viereckl et al. [2022]; Colvin et al. [2022]; Sooda et al. [2023]; cited from earlier work
TK6 cells [12] = assay: Mitotic disturbance assay; assay type: cell-based, human; conditions: 6 h, without S9; CBG 30 µM, CBD 15 µM, CBC 15 µM, CBDV 40 µM, CBN 15 µM; vs solvent control
Method: The cells were treated for 6 h with CBG 30 µM, CBD 15 µM, CBC 15 µM, CBDV 40 µM, and CBN 15 µM. The positive control was vincristine sulphate 0.0121 µM, and the solvent control was DMSO. For the experiments with or without the S9 mix (final concentration 0.25%), TK6 cells were treated with either CBDV 40 µM or vincristine sulphate 10 ng/mL for 6 h. DMSO with or without S9 mix was used as control. Further procedure was as described for micronucleus experiments, except with direct harvest after cannabinoid treatment without the incubation period with cytochalasin B. Two slides were evaluated with a Nikon Eclipse 55i fluorescent microscope for each experimental condition. The independent experiments were conducted three times.
The cells were counted in categories apoptosis, interphase, prophase, metaphase, anaphase-telophase, disturbed metaphase, and disturbed anaphase-telophase in 1000 cells. The mitotic index was calculated as a sum of the number of cells in prophase, metaphase, anaphase-telophase, disturbed metaphase, and disturbed anaphase-telophase in 1000 cells. Disturbed metaphase and disturbed anaphase-telophase were defined as deviating from the usual appearance of mitoses. Disturbed mitoses were assessed in 100 mitotic cells per slide.

[13] = design: method as in Zhong et al. [2023]; conditions: depending on the cell line; downregulating CDK1, CDK2 and cyclin E; ref Zhong et al. [2023]; cited from earlier work
[14] = 6 h, without S9, CBG 30 µM, CBD 15 µM, CBC 15 µM, CBDV 40 µM, CBN 15 µM
[15] = treatment – control (basal level of micronuclei subtracted), same concentrations

Compound: CCCCCc1cc(O)c2c(c1)OC(C)(CCC=C(C)C)C=C2 (centres unmarked) [CBC, cannabichromene]
- Cell cycle distribution, 6 h (TK6 cells [1]; [14]): no significant changes in the normal cell cycle distribution
- Cell cycle distribution (time not given) (TK6 cells [1]; TK6, CBC 15 µM, CBN 15 µM, 6 or 24 h): did not observe a change in cell cycle distribution
- Kinetochore (+) MNi, % [2]: 48.5%
- Kinetochore (+) induced MNi [2, 15]: 69.7%
- BMDL (10th percentile) [3]: 2.5 µM
- 4 h BMD50 [3]: 9.8 µM
- BMDU (90th percentile) [3]: 34.5 µM
- Number of micronuclei with S9 mix vs without [3]: reduced as well, but not significantly
- Micronucleus induction [3]: significant induction of micronuclei
- Mean Cmax concentration in plasma [4]: 6.6 ng/mL
- Cmax ([4]; read-out: Mean Cmax concentration in plasma): 21 nM
- Multipolar and monopolar tubulin aggregation (TK6 cells [5]): observed more frequently

Compound: C=C(C)[C@@H]1CCC(C)=C[C@H]1c1c(O)cc(CCC)cc1O [CBDV, cannabidivarin]
- Cell cycle effect [6]: induced cell cycle arrest
- Cell cycle distribution, 6 h (TK6 cells [1]; human, 6 h, 40 µM): slight non-significant rise in cell percentage in the G1 phase
- Cell cycle distribution, absence or presence of metabolic enzymes (TK6 cells [1]; human, 6 h, 40 µM): cell accumulation in the G1 phase
- DNA damage (comet assay) [7]: had the same effect on the cells as CBD
- Micronucleus induction [8]: induced micronuclei only after metabolic activation
- Number of micronuclei with S9 mix vs without [8]: significant rise in micronuclei frequency
- 4 h BMD50 [8]: 15.3 µM
- BMDL (10th percentile) [8]: 1.4 µM
- BMDU (90th percentile) [8]: 102.9 µM
- Kinetochore (+) induced MNi ([2]; human): 69.8%
- Mean plasma Cmax [9]: 7.4 ng/mL
- Cmax ([9]; read-out: Mean plasma Cmax): 25.8 nM

Compound: CCCCCc1cc(O)c(C/C=C(\C)CCC=C(C)C)c(O)c1 [CBG, cannabigerol]
- Micronucleus induction [8]: significant induction of micronuclei
- Number of micronuclei with S9 mix vs without [8]: significant reduction in the number of micronuclei
- 4 h BMD50 [8]: 20.5 µM
- BMDL (10th percentile) [8]: 3.9 µM
- BMDU (90th percentile) [8]: 64.1 µM
- Kinetochore (+) induced MNi ([2]; human): 61.5%
- Mean maximum concentration (Cmax) in blood [10]: 6.9 ng/mL
- Cmax [10]: 21.8 nM
- Cell cycle effect [11]: arresting cells in the G0/G1 phase

Compound: CCCCCc1cc(O)c2c(c1)OC(C)(C)c1ccc(C)cc1-2 [CBN, cannabinol]
- Mitotic index (TK6 cells [12]): significantly decreased the mitotic index
- Cell cycle effect [13]: cell cycle arrest in either the G0/G1 phase or S phase
- Cell cycle distribution, 6 h (TK6 cells [1]; [14]): no significant changes in the normal cell cycle distribution
- Kinetochore (+) MNi, % [2]: 46%
- Kinetochore (+) induced MNi [2, 15]: 63.3%
- Cmax [10]: 37.4 nM
- BMDL (10th percentile) [3]: 2.7 µM
- 4 h BMD50 [3]: 8.4 µM
- BMDU (90th percentile) [3]: 16.9 µM
- Number of micronuclei with S9 mix vs without [3]: significant reduction in the number of micronuclei
- Micronucleus induction [3]: significant induction of micronuclei
- Multipolar and monopolar tubulin aggregation (TK6 cells [5]): observed more frequently

Compound: COS(C)(=O)=O [MMS, methyl methane sulfonate, reference compound]
- Kinetochore (+) MNi, % [2]: 38%
- Kinetochore (+) induced MNi [2, 15]: 41.9%
